From publication PMC6566410, “Novel Diamide-Based Benzenesulfonamides as Selective Carbonic Anhydrase IX Inhibitors Endowed with Antitumor Activity: Synthesis, Biological Evaluation and In Silico Insights” (International Journal of Molecular Sciences, 2019)

Tests used:
[1] = molecular target: hCA XII (Homo sapiens, UniProt O43570); experiment: stopped-flow CO2 hydrase assay; conditions: for Selectivity ratio I/XII: KI hCA I / KI hCA XII; for Selectivity ratio II/XII: KI hCA II / KI hCA XII
From the text: (§3) An Applied Photophysics stopped-flow instrument was used for assaying the CA catalysed CO2 hydration activity, as reported earlier [17]. The inhibition constants were obtained by non-linear least-squares methods using PRISM 3 and the Cheng-Prusoff equation as reported earlier, and represent the mean from at least three different determinations. The four tested CA isofoms were recombinant ones obtained in-house as reported earlier [26, 27, 28, 29].

[2] = molecular target: hCA II (Homo sapiens, UniProt P00918); experiment: stopped-flow CO2 hydrase assay
From the text: as §3

[3] = molecular target: hCA I (Homo sapiens, UniProt P00915); experiment: stopped-flow CO2 hydrase assay
From the text: as §3

[4] = test system: HOP-92; experiment: NCI one-dose SRB assay; assay type: cell-based; conditions: Homo sapiens, HOP-92 (Non-Small Cell Lung Cancer), 1.00E-5 Molar, read-out: Growth Percent
Protocol: (§1) First, all diamide-based benzenesulfonamides herein reported 5a–h were screened for their antitumor activity at one dose (10^−5 M) assay against a panel of sixty cancer cell lines through the National Cancer Institute (NCI) Developmental Therapeutic Program (www.dtp.nci.nih.gov), according to US-NCI protocol. The cell growth and cell viability were evaluated using the sulforhodamine B (SRB) colorimetric assay.
(§2) This assay was carried out according to the protocol of the Drug Evaluation Branch, NCI, Bethesda. The cell growth and cell viability were evaluated using the sulforhodamine B (SRB) colorimetric assay, as reported earlier.

[5] = test system: MDA-MB-468; experiment: NCI one-dose SRB assay; assay type: cell-based; conditions: Homo sapiens, MDA-MB-468 (Breast Cancer), 1.00E-5 Molar, read-out: Growth Percent
Protocol: as §1, §2

[6] = test system: IGROV1; experiment: NCI one-dose SRB assay; assay type: cell-based; conditions: Homo sapiens, IGROV-1, IGROV1 (Ovarian Cancer), 1.00E-5 Molar, read-out: Growth Percent
Protocol: as §1, §2

[7] = test system: HCT-116; experiment: NCI one-dose SRB assay; assay type: cell-based; conditions: Homo sapiens, HCT-116 (Colon Cancer), 1.00E-5 Molar, read-out: Growth Percent
Protocol: as §1, §2

[8] = test system: SNB-75; experiment: NCI one-dose SRB assay; assay type: cell-based; conditions: Homo sapiens, SNB-75 (CNS Cancer), 1.00E-5 Molar, read-out: Growth Percent
Protocol: as §1, §2

[9] = test system: LOX IMVI; experiment: NCI one-dose SRB assay; assay type: cell-based; conditions: Homo sapiens, LOX IMVI (Melanoma), 1.00E-5 Molar, read-out: Growth Percent
Protocol: as §1, §2

[10] = test system: NCI-H23; experiment: NCI one-dose SRB assay; assay type: cell-based; conditions: Homo sapiens, NCI-H23 (Non-Small Cell Lung Cancer), 1.00E-5 Molar, read-out: Growth Percent
Protocol: as §1, §2

[11] = test system: A498; experiment: NCI one-dose SRB assay; assay type: cell-based; conditions: Homo sapiens, A498 (Renal Cancer), 1.00E-5 Molar, read-out: Growth Percent
Protocol: as §1, §2

[12] = test system: NCI-H460; experiment: NCI one-dose SRB assay; assay type: cell-based; conditions: Homo sapiens, NCI-H460 (Non-Small Cell Lung Cancer), 1.00E-5 Molar, read-out: Growth Percent
Protocol: as §1, §2

[13] = test system: EKVX; experiment: NCI one-dose SRB assay; assay type: cell-based; conditions: Homo sapiens, EKVX (Non-Small Cell Lung Cancer), 1.00E-5 Molar, read-out: Growth Percent
Protocol: as §1, §2

[14] = test system: OVCAR-4; experiment: NCI one-dose SRB assay; assay type: cell-based; conditions: Homo sapiens, OVCAR-4 (Ovarian Cancer), 1.00E-5 Molar, read-out: Growth Percent
Protocol: as §1, §2

[15] = test system: RPMI-8226; experiment: NCI one-dose SRB assay; assay type: cell-based; conditions: Homo sapiens, RPMI-8226 (Leukemia), 1.00E-5 Molar, read-out: Growth Percent
Protocol: as §1, §2

[16] = test system: SF-539; experiment: NCI one-dose SRB assay; assay type: cell-based; conditions: Homo sapiens, SF-539 (CNS Cancer), 1.00E-5 Molar, read-out: Growth Percent
Protocol: as §1, §2

[17] = test system: MCF7; experiment: NCI one-dose SRB assay; assay type: cell-based; conditions: Homo sapiens, MCF7 (Breast Cancer), 1.00E-5 Molar, read-out: Growth Percent
Protocol: as §1, §2

[18] = test system: OVCAR-8; experiment: NCI one-dose SRB assay; assay type: cell-based; conditions: Homo sapiens, OVCAR-8 (Ovarian Cancer), 1.00E-5 Molar, read-out: Growth Percent
Protocol: as §1, §2

[19] = test system: MALME-3M; experiment: NCI one-dose SRB assay; assay type: cell-based; conditions: Homo sapiens, MALME-3M (Melanoma), 1.00E-5 Molar, read-out: Growth Percent
Protocol: as §1, §2

[20] = test system: SF-295; experiment: NCI one-dose SRB assay; assay type: cell-based; conditions: Homo sapiens, SF-295 (CNS Cancer), 1.00E-5 Molar, read-out: Growth Percent
Protocol: as §1, §2

[21] = test system: OVCAR-3; experiment: NCI one-dose SRB assay; assay type: cell-based; conditions: Homo sapiens, OVCAR-3 (Ovarian Cancer), 1.00E-5 Molar, read-out: Growth Percent
Protocol: as §1, §2

[22] = test system: DU-145; experiment: NCI one-dose SRB assay; assay type: cell-based; conditions: Homo sapiens, DU-145 (Prostate Cancer), 1.00E-5 Molar, read-out: Growth Percent
Protocol: as §1, §2

[23] = test system: OVCAR-5; experiment: NCI one-dose SRB assay; assay type: cell-based; conditions: Homo sapiens, OVCAR-5 (Ovarian Cancer), 1.00E-5 Molar, read-out: Growth Percent
Protocol: as §1, §2

[24] = test system: 786-0; experiment: NCI one-dose SRB assay; assay type: cell-based; conditions: Homo sapiens, 786-0 (Renal Cancer), 1.00E-5 Molar, read-out: Growth Percent
Protocol: as §1, §2

[25] = test system: SK-MEL-5; experiment: NCI one-dose SRB assay; assay type: cell-based; conditions: Homo sapiens, SK-MEL-5 (Melanoma), 1.00E-5 Molar, read-out: Growth Percent
Protocol: as §1, §2

[26] = test system: UACC-62; experiment: NCI one-dose SRB assay; assay type: cell-based; conditions: Homo sapiens, UACC-62 (Melanoma), 1.00E-5 Molar, read-out: Growth Percent
Protocol: as §1, §2

[27] = test system: SK-MEL-28; experiment: NCI one-dose SRB assay; assay type: cell-based; conditions: Homo sapiens, SK-MEL-28 (Melanoma), 1.00E-5 Molar, read-out: Growth Percent
Protocol: as §1, §2

[28] = test system: KM12; experiment: NCI one-dose SRB assay; assay type: cell-based; conditions: Homo sapiens, KM12 (Colon Cancer), 1.00E-5 Molar, read-out: Growth Percent
Protocol: as §1, §2

[29] = test system: SN12C; experiment: NCI one-dose SRB assay; assay type: cell-based; conditions: Homo sapiens, SN12C (Renal Cancer), 1.00E-5 Molar, read-out: Growth Percent
Protocol: as §1, §2

[30] = test system: SF-268; experiment: NCI one-dose SRB assay; assay type: cell-based; conditions: Homo sapiens, SF-268 (CNS Cancer), 1.00E-5 Molar, read-out: Growth Percent
Protocol: as §1, §2

[31] = molecular target: hCA IX (Homo sapiens, UniProt Q16790); experiment: stopped-flow CO2 hydrase assay; conditions: for Selectivity ratio I/IX: KI hCA I / KI hCA IX; for Selectivity ratio II/IX: KI hCA II / KI hCA IX
From the text: as §3

Sequence of hCA XII (O43570 25-354): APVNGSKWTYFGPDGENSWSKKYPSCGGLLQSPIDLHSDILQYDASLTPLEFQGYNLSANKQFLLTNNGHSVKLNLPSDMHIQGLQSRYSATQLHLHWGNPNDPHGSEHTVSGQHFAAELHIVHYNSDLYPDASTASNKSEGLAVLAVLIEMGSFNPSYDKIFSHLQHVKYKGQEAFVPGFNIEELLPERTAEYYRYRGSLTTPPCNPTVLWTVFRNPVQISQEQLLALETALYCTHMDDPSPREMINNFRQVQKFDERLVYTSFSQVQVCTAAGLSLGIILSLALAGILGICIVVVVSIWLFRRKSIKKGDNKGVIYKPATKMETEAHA
Sequence of hCA I (P00915 whole entry): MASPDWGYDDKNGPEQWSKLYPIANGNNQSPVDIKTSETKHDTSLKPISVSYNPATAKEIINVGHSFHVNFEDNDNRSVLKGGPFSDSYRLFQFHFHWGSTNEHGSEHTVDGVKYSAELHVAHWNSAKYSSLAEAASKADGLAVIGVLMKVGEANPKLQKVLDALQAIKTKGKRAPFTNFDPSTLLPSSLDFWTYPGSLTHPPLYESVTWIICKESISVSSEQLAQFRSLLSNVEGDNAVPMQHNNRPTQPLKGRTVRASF

Compound | Ki [1] [nM] | Selectivity ratio I/XII [1] | Selectivity ratio II/XII [1] | Ki [2] [nM] | Ki [3] [nM] | activity at 10 µM [4] [%] | activity at 10 µM [5] [%] | activity at 10 µM [6] [%] | activity at 10 µM [7] [%] | activity at 10 µM [8] [%] | activity at 10 µM [9] [%] | activity at 10 µM [10] [%] | activity at 10 µM [11] [%] | activity at 10 µM [12] [%] | activity at 10 µM [13] [%] | activity at 10 µM [14] [%] | activity at 10 µM [15] [%] | activity at 10 µM [16] [%] | activity at 10 µM [17] [%] | activity at 10 µM [18] [%] | also measured
COc1ccc(C=C(NC(=O)c2ccccc2)C(=O)Nc2ccc(S(N)(=O)=O)cc2)c(OC)c1 [Compound 5f, N-(1-(2,4-Dimethoxyphenyl)-3-oxo-3-((4-sulfamoylphenyl)amino)prop-1-en-2-yl)benzamide] | 134 | 38.2 | 2.2 | 294 | 5130 | 114 | 74.8 | 91.9 | 104 | 92.9 | 99.8 | 101 | 111 | 109 | 97.3 | 104 | 109 | 98.2 | 87.6 | 100 | activity at 10 µM [19]: 104%; activity at 10 µM [20]: 110%; activity at 10 µM [21]: 113%; activity at 10 µM [22]: 111%; activity at 10 µM [23]: 106%; activity at 10 µM [24]: 103%; activity at 10 µM [25]: 102%; activity at 10 µM [26]: 97.2%; activity at 10 µM [27]: 109%; activity at 10 µM [28]: 109%; activity at 10 µM [29]: 94.8%; activity at 10 µM [30]: 114%; Ki [31]: 73.7 nM; Selectivity ratio I/IX [31]: 69.9; Selectivity ratio II/IX [31]: 4
COc1ccc(C=C(NC(=O)c2ccccc2)C(=O)Nc2ccc(S(N)(=O)=O)cc2)cc1OC [Compound 5g, N-(1-(3,4-Dimethoxyphenyl)-3-oxo-3-((4-sulfamoylphenyl)amino)prop-1-en-2-yl)benzamide] | 9.8 | 225.3 | 45.7 | 448 | 2210 | 126 | 111 | 91.6 | 109 | 103 | 100 | 102 | 109 | 107 | 103 | 105 | 107 | 92.6 | 106 | 97.1 | activity at 10 µM [19]: 101%; activity at 10 µM [20]: 102%; activity at 10 µM [21]: 107%; activity at 10 µM [22]: 117%; activity at 10 µM [23]: 103%; activity at 10 µM [24]: 109%; activity at 10 µM [25]: 99.3%; activity at 10 µM [26]: 94.3%; activity at 10 µM [27]: 109%; activity at 10 µM [28]: 104%; activity at 10 µM [29]: 97.6%; activity at 10 µM [30]: 104%; Ki [31]: 123 nM; Selectivity ratio I/IX [31]: 17.9; Selectivity ratio II/IX [31]: 3.6
Cc1ccc(C=C(NC(=O)c2ccccc2)C(=O)Nc2ccc(S(N)(=O)=O)cc2)o1 [Compound 5h, N-(1-(5-Methylfuran-2-yl)-3-oxo-3-((4-sulfamoylphenyl)amino)prop-1-en-2-yl)benzamide] | 57.9 | 141.2 | 2 | 115 | 8180 | 70.1 | 98.7 | 81 | 89.1 | 81.5 | 94.9 | 98.9 | 99.8 | 101 | 98 | 86.2 | 84.7 | 90.2 | 97.1 | 95.5 | activity at 10 µM [19]: 93.2%; activity at 10 µM [20]: 94.2%; activity at 10 µM [21]: 108%; activity at 10 µM [22]: 99.9%; activity at 10 µM [23]: 100%; activity at 10 µM [24]: 98.7%; activity at 10 µM [25]: 82.3%; activity at 10 µM [26]: 95%; activity at 10 µM [27]: 114%; activity at 10 µM [28]: 98.4%; activity at 10 µM [29]: 98.6%; activity at 10 µM [30]: 100%; Ki [31]: 8.3 nM; Selectivity ratio I/IX [31]: 985; Selectivity ratio II/IX [31]: 13.8
